Experiments:
Type in all cases: in vivo
[1] = tested on: Surinam grass (Brachiaria decumbens); test: Test B pre/postemergence
Outline: (§1)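 Pre: compound (non-phytotoxic solvent + surfactant) applied to freshly planted seeds. Post: same formulation sprayed on 2–18 cm plants, 1- to 4-leaf. Readout: visual control rating 0–100 vs controls, 13–15 d, greenhouse.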

[2] = tested on: barnyardgrass (Echinochloa crus-galli); test: Test B pre/postemergence
Outline: as §1

[3] = tested on: cocklebur (Xanthium strumarium); test: Test B pre/postemergence
Outline: as §1

corn (Zea mays) = test: Test B pre/postemergence
Outline: as §1

[4] = tested on: crabgrass (Digitaria sanguinalis); test: Test B pre/postemergence
Outline: as §1

[5] = tested on: giant foxtail (Setaria faberii); test: Test B pre/postemergence
Outline: as §1

[6] = tested on: lambsquarters (Chenopodium album); test: Test B pre/postemergence
Outline: as §1

[7] = tested on: morningglory (Ipomoea coccinea); test: Test B pre/postemergence
Outline: as §1

[8] = tested on: pigweed (Amaranthus retroflexus); test: Test B pre/postemergence
Outline: as §1

[9] = tested on: velvetleaf (Abutilon theophrasti); test: Test B pre/postemergence
Outline: as §1

[10] = tested on: wheat (Triticum aestivum); test: Test B pre/postemergence
Outline: as §1

[11] = tested on: blackgrass (Alopecurus myosuroides); test: Test B postemergence
Outline: as §1

wild oat (Avena fatua) = test: Test B postemergence
Outline: as §1

[12] = tested on: barnyardgrass (Echinochloa crus-galli); test: Test B flooded paddy test; settings: Flood, 1000 g ai/ha; scale 0 (no effect) to 100 (complete control)
Outline: (§2)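 Plants were grown to the 2-leaf stage before treatment, then kept in a greenhouse for 13 to 15 days. Injury was rated visually against untreated controls on a 0 to 100 scale, where 0 is no effect and 100 is complete control.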

[13] = tested on: duck salad (Heteranthera limosa); test: Test B flooded paddy test; settings: Flood, 1000 g ai/ha; scale 0 to 100
Outline: as §2

rice (Oryza sativa) = test: Test B flooded paddy test; settings: Flood, 1000 g ai/ha; scale 0 to 100
Outline: as §2

[14] = tested on: umbrella sedge (Cyperus difformis); test: Test B flooded paddy test; settings: Flood, 1000 g ai/ha; scale 0 to 100
Outline: as §2

[15] = Postemergence, 125 g ai/ha, scale 0 to 100 (0 no effect, 100 complete control)
[16] = Postemergence, 500 g ai/ha, scale 0 to 100
[17] = Preemergence, 125 g ai/ha, scale 0 to 100 (0 no effect, 100 complete control)
[18] = Preemergence, 500 g ai/ha, scale 0 to 100 (0 no effect, 100 complete control)
[19] = 125 g ai/ha, scale 0 to 100 (0 no effect, 100 complete control)

CNN=Cc1nc(C2CC2)nc(N)c1Br [Compound 49]
50: Velvetleaf plant response rating [9, 15] | Plant response rating, Blackgrass ([11]; 500 g ai/ha, scale 0 to 100) | Plant response rating, Barnyardgrass [12]
70: Plant response rating, Barnyardgrass [2, 16] | Plant response rating, Foxtail, Giant [5, 16] | Foxtail, Giant plant response rating [5, 18] | Plant response rating, Wheat [10, 18] | Plant response rating, Sedge, Umbrella [14]
10: Surinam Grass plant response rating [1, 15] | Plant response rating, Corn (corn (Zea mays); [17]) | Foxtail, Giant plant response rating [5, 15]
20: Blackgrass plant response rating [11, 19]
80: Plant response rating, Cocklebur [3, 17] | Plant response rating, Crabgrass [4, 16] | Plant response rating, Crabgrass [4, 17] | Lambsquarters plant response rating [6, 15] | Plant response rating, Morningglory [7, 17] | Plant response rating, Velvetleaf [9, 16] | Plant response rating, Velvetleaf [9, 17]
40: Plant response rating, Surinam Grass [1, 17] | Corn plant response rating (corn (Zea mays); [18]) | Plant response rating, Foxtail, Giant [5, 17] | Plant response rating, Wheat [10, 16]
60: Plant response rating, Surinam Grass [1, 16] | Surinam Grass plant response rating [1, 18] | Barnyardgrass plant response rating [2, 18] | Plant response rating, Oat, Wild (wild oat (Avena fatua); 500 g ai/ha, scale 0 to 100) | Plant response rating, Ducksalad [13]
30: Barnyardgrass plant response rating [2, 15] | Plant response rating, Barnyardgrass [2, 17] | Plant response rating, Corn (corn (Zea mays); [16]) | Crabgrass plant response rating [4, 15] | Wheat plant response rating [10, 15] | Plant response rating, Wheat [10, 17] | Oat, Wild plant response rating (wild oat (Avena fatua); [19]) | Plant response rating, Rice (rice (Oryza sativa))
100: Plant response rating, Cocklebur [3, 16] | Lambsquarters plant response rating [6, 18] | Plant response rating, Morningglory [7, 16] | Morningglory plant response rating [7, 18] | Pigweed plant response rating [8, 18]
90: Cocklebur plant response rating [3, 15] | Cocklebur plant response rating [3, 18] | Crabgrass plant response rating [4, 18] | Plant response rating, Lambsquarters [6, 16] | Plant response rating, Lambsquarters [6, 17] | Morningglory plant response rating [7, 15] | Pigweed plant response rating [8, 15] | Plant response rating, Pigweed [8, 16] | Plant response rating, Pigweed [8, 17] | Velvetleaf plant response rating [9, 18]
0: Corn plant response rating (corn (Zea mays); [15])
